“And” between values parts separate entries of the source, which are not always exact repeats. Equal values may be shown once.
What was measured:
Type in all cases: cell-based
320 non-olfactory GPCRs [1] = molecular target: T1, 320 non-olfactory GPCRs (Homo sapiens, UniProt P46091)
T1 construct: expressed in transfected cells; host or cells: HTLA cells

320 non-olfactory GPCRs [2] = molecular target: 320 non-olfactory GPCRs (Homo sapiens, UniProt P61073)
320 non-olfactory GPCRs [3] = molecular target: T2, 320 non-olfactory GPCRs (Homo sapiens, UniProt O15552)
T2 construct: expressed in transfected cells; host or cells: HTLA cells
T2 sequence (O15552 whole entry): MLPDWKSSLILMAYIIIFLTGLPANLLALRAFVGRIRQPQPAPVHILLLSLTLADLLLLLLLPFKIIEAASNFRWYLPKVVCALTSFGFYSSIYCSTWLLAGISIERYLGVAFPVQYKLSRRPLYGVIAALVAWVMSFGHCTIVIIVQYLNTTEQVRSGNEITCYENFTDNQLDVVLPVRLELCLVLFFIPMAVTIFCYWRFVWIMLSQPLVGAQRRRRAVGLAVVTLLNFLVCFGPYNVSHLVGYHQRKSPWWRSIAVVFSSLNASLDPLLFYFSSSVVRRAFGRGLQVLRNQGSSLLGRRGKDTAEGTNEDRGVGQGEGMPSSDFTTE

320 non-olfactory GPCRs [4] = molecular target: 320 non-olfactory GPCRs (Homo sapiens, UniProt P30542)
Sequence of 320 non-olfactory GPCRs (Homo sapiens, UniProt P30542) (P30542 whole entry): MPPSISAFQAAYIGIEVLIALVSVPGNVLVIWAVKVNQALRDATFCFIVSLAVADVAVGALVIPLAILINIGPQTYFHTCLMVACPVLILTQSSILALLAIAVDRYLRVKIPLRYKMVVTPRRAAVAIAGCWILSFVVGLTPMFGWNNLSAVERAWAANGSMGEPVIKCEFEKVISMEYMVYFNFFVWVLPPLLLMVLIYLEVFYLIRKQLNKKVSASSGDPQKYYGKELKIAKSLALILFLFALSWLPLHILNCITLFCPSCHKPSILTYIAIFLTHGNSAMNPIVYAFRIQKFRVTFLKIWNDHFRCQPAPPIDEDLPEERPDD
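Further: compound tested at 1 µM final concentration.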

T1 sequence (P46091 whole entry): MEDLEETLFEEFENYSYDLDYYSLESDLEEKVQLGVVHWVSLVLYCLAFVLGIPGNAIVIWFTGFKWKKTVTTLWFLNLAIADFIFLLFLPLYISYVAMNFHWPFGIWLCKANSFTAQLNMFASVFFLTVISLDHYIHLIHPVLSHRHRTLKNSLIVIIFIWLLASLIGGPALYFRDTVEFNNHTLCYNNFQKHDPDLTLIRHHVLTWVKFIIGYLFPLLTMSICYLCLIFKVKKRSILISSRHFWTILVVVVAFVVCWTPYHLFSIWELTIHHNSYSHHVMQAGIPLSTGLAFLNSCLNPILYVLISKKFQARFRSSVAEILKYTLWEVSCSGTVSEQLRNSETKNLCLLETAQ
Sequence of 320 non-olfactory GPCRs (Homo sapiens, UniProt P61073) (P61073 whole entry): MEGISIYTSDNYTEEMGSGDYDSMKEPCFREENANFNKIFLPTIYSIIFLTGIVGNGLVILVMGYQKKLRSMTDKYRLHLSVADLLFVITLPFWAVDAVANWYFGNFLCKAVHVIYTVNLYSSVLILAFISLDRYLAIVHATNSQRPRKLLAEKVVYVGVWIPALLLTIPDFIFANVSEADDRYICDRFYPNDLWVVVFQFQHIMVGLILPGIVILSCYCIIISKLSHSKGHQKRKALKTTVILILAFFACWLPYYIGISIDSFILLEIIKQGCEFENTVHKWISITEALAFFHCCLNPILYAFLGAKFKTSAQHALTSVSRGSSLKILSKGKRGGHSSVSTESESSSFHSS

For `CCOc1cccc2cc(C(C)NCC3(O)CCCCC3)oc12` (stereo not shown) [O4LE6], the “Fold of Basal” value (320 non-olfactory GPCRs [1]) was 1.745 and 1.544 and 1.297 and 1.2172, the “Fold of Basal” value (320 non-olfactory GPCRs [2]) was 0.9863 and 0.8615 and 0.8471 and 0.9066 and the “Fold of Basal” value (320 non-olfactory GPCRs [3]) was 0.7744 and 0.8932 and 0.7484 and 0.9767. For the same compound, the “Fold of Basal” value (320 non-olfactory GPCRs [4]) was 0.6117 and 1.0436 and 0.9318 and 0.9525.
